# Measurements as given in US20040180915A1, “Methadone-containing compositions for parenteral administration and method of use thereof” (priority 2003, published 2004).
# Tests used:
# microorganisms = settings: cited from earlier work
# [1] = tested on: gram-positive and gram-negative bacteria; settings: cited from earlier work
# molds and yeasts = settings: relative to activity against bacteria; cited from earlier work
# [2] = cited from earlier work
# [3] = in vivo; cited from earlier work
# [4] = oral vs intramuscular; cited from earlier work
# [5] = cited from earlier work; remark: listed apart in the source
# [6] = ECG/EKG comparison of QTc intervals in patients on and off treatment
# Description: Applicants' also performed a comparison study involving hundreds of EKG's performed on patients treated with IV methadone versus the EKG's of patients not being treated with the IV methadone.
Molecule,pH range (optimal pH range for activity) (microorganisms),activity against growth of gram-positive and gram-negative bacteria [1],activity against growth of molds and yeasts (molds and yeasts),further results
O=C(O)c1ccccc1 [Benzoic acid],2-5,strongly active,slightly weaker,–
CCCCOC(=O)c1ccc(O)cc1 [Butylparaben],3.0-9.5,–,–,water solubility [2]: about 0.2%
COC(=O)c1ccc(O)cc1 [Methylparaben],3.0-9.5,strongly active,slightly weaker,–
CCCOC(=O)c1ccc(O)cc1 [Propylparaben],3.0-9.5,–,–,–
C/C=C/C=C/C(=O)O [Sorbic acid],<6.5,strongly active,slightly weaker,–
CC(C)(O)C(Cl)(Cl)Cl [chlorobutanol],–,–,–,half-life [3]: over 10 days
CCC(=O)C(CC(C)N(C)C)(c1ccccc1)c1ccccc1 (stereo not drawn) [methadone],–,–,–,"total analgesic effects, oral relative to same dose intramuscularly [4]: about 50%; time to appreciable concentrations in plasma ([5]; after subcutaneous injection): ≤ 10 min; time to detection in blood plasma after ingestion ([5]; oral): ≤ 30 min; QTc prolongation after switch from IV route to oral route ([6]; at least one patient): reversed; prolongation in QTc interval times ([6]; orally ingested methadone in a formulation without chlorobutanol): did not show a similar prolongation"
Benzalkonium chloride,4-10,strongly active,slightly weaker,–
Cetrimide,4-10,strongly active,slightly weaker,–
